Series [1] has as its system CEMVBL100, leukaemia line resistant to vinblastine (hyperexpressing P-glycoprotein). In words: Cytotoxicity of vinblastine on resistant cells with and without the derivative (SRB test). The format is cell-based. To be noted: CEM/VBL100, 48 h. On the procedure:
In cancer cells the resistance to many anticancer drugs is often associated with a high expression of P-glycoprotein, a membrane protein belonging to the overall family of ABC transporters (ATP-binding cassette).
The cells were placed in 96-well strips at a density of 15,000 cells per well, in a volume of culture medium of 100 μl. After 24 hours, a suitable concentration of between 25 nM and 1000 nM of vinblastine was added to the culture medium. […] At the same time, some control trials were arranged by adding to the wells the solvent in which the compound was dissolved (% v/v of DMSO in PBS). All measurements were carried out in quadruplicate. After 48 hours of incubation, a dosage-response profile was obtained by using the SRB test (J. Natl. Cancer. Inst. 82, (1990), 1107-1112, loc. cit.).

For a further series, the target named is T1, GST M2-2 (Homo sapiens, UniProt P28161).
T1 construct: made in house; host or cells: Escherichia coli
T1 sequence (P28161 1-218): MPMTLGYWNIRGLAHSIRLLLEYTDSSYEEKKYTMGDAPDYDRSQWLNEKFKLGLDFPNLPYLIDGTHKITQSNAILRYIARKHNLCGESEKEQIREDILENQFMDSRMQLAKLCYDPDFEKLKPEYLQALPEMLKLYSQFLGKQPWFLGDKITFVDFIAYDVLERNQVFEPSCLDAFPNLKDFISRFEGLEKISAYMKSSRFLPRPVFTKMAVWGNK
In words: Inhibition of GST activity (CDNB/GSH spectrophotometric assay). As to conditions: 25° C., pH 6.5, 1 mM glutathione, 1 mM CDNB. The format is biochemical. The method, then:
(§1) These compounds were tested as inhibitors of the activity of the isoenzymes GSTP1-1, GSTA1-1 and GSTM2-2 belonging to the most representative GST classes: the Pi, Mu and Alpha classes.
(§2) GSTA1-1, M2-2 and P1-1, expressed in Escherichia coli, were purified by using a chromatographic passage on an affinity resin capable of selectively retaining the GST (J. Biol. Chem. 270, (1995), 1249-1253).
(§3) GST activity was tested at 25° C. with a 0.1 M potassium phosphate buffer, at pH 6.5, in the presence of the substrates, i.e. of the glutathione (Sigma-Aldrich, Fine Chemicals) in a concentration of 1 mM, and of 1-chloro-2,4-dinitrobenzene (CDNB) (Sigma-Aldrich, Fine Chemicals) 1 mM (Methods Enzymol. 77, 1981, 398-405).
(§4) Enzymatic activity was assessed spectrophotometrically at 340 nm, a wavelength at which it absorbs the reaction product S-(2,4-dinitrobenzene)glutathione (GS-DNB) (6=9.6 mM^−1 cm^−1).

Another series addresses T2, GST A1-1 (Homo sapiens, UniProt P08263).
T2 construct: made in house; host or cells: Escherichia coli
T2 sequence (P08263 1-222): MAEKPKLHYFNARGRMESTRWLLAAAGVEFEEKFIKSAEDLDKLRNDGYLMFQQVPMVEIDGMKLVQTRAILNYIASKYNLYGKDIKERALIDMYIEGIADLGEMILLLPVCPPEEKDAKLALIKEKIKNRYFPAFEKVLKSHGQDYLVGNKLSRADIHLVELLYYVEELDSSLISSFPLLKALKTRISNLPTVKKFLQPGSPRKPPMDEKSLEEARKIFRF
The series is described as above. It counts as biochemical. To be noted: 25° C., pH 6.5, 1 mM glutathione, 1 mM CDNB. The method, then:
as §1, §2, §3, §4

Series [2] deals with T3, GST-JNK complex in K562 cells (Homo sapiens, UniProt P09211).
T3 construct: K562 cell lysates were immunoprecipitated with an anti-JNK antybody and used for Western blot analysis; endogenous in cells; host or cells: K562
In words: Immunoprecipitation with anti-JNK antibody and Western blot. The format is cell-based. As to conditions: K562 lysates, 10 μM; slightly increases only after 3 h. On the procedure:
For the immunoprecipitation analysis, cell pellets were resuspended in lysis buffer, and cells were disrupted by 10-s sonication. Lysates were then centrifuged at 14,000 g for 15 min at 4° C. Proteins were incubated in lysis buffer with anti-JNK antibody for 2 h at 4° C. Immunocomplexes were absorbed with protein A-Sepharose for 30 min at 4° C. After three washes with lysis buffer, immune pellets were boiled in SDS sample buffer. Proteins were loaded on 15% SDS-polyacrylamide gel and transferred to nitrocellulose. GST, JNK and phospho-JNK were detected by specific antibody.
To assess if cell treatment with derivative No. 2 affects the amount of GST-JNK complex, K562 cell lysates were immunoprecipitated with an anti-JNK antybody and used for Western blot analysis.

Series [3] relates to CEM1.3 (human T-lymphoblastic leukaemia). In words: SRB cell growth test. The format is cell-based. To be noted: CEM13, read-out: Activity trials on cell lines - IC50 (50% inhibition of cell growth), CEM1.3, 48 hours. On the procedure: (§5) Four cancer cell lines were used for testing the anticancer activity of the derivatives of 7-nitro-2,1,3-benzoxadiazole: K562 (human myeloid leukaemia), HepG2 (human hepatic carcinoma), CEM1.3 (human T-lymphoblastic leukaemia) and GLC-4 (human small cell lung carcinoma).
(§6) The human cancer cell lines were maintained in RPMI 1640 (containing L-glutamine 2 mM and 0.1 g/l of penicillin-G/streptomycin sulphate) enriched with 5% foetal bovine serum (FBS), at 37° C., 5% CO2 and 98% humidity.
(§7) The cells were placed in 96-well plates at a density of 15,000 cells per well, in a culture medium volume of 100 μl. After 24 hours, each of the 7-nitro-2,1,3-benzoxadiazole derivatives to be assayed, at the required concentration, was added to the culture medium. At the same time, some control trials were arranged by adding to the wells the solvent in which the compound was dissolved (% v/v of DMSO in PBS). All measurements were carried out in quadruplicate.
(§8) The cells were incubated for 48 hours at 37° C., at 5% CO2.
(§9) In order to obtain a dose-response profile for each derivative of 7-nitro-2,1,3-benzoxadiazole under study, an evaluation process based on the method described by Shekan et al (J. Natl. Cancer. Inst. 82, (1990), 1107-1112) was used.
(§10) After incubation, the percentage cell growth was evaluated by an insitu cell fixation procedure, followed by an SRB test using a colouring procedure with sulphorodamine B capable of specifically binding to proteins. The coloured product was then solubilised and quantified spectrophotometrically in order to determine the growth of the cells treated with the compound under study with respect to the ones treated with the solvent only.

In series [4] the test system is GLC-4 (human small cell lung carcinoma). Nature of the series: SRB cell growth test. The format is cell-based. To be noted: GLC4, read-out: Activity trials on cell lines - IC50 (50% inhibition of cell growth), GLC-4, 48 hours. On the procedure:
as §5, §6, §7, §8, §9, §10

In series [5] the test system is HepG2 (human hepatic carcinoma). Nature of the series: SRB cell growth test. To be noted: HepG2, read-out: Activity trials on cell lines - IC50 (50% inhibition of cell growth), HepG2, 48 hours. It counts as cell-based. The method, then:
as §5, §6, §7, §8, §9, §10

In series [6] the test system is K562 (human myeloid leukaemia). Nature of the series: SRB cell growth test. The format is cell-based. As to conditions: K562, read-out: Activity trials on cell lines - IC50 (50% inhibition of cell growth), K562, 48 hours. On the procedure:
as §5, §6, §7, §8, §9, §10

The test system of a further series is K562 cells. In words: Flow cytometric analysis of apoptosis (Annexin V-FITC / PI). To be noted: K562, 10 μM. The format is cell-based, human. The method, then: (§11) Cells were washed in PBS, and stained with propidium iodide and with the impermeant dye Annexin V-FITC (Bender MedSystems, Vienna, Austria). The stained cells were analysed using a FACScan Flow Cytometer (Becton-Dickinson, CA). Data were recorded and statistically analysed by WinMDI version 2.8 software. Simultaneous staining of cells with Annexin V-FITC and PI allows the discrimination of intact cells, early apoptotic and late apoptotic or necrotic cells.

The next series deals with CEM1.3 cells. The description is as above. The format is cell-based, human. As to conditions: CEM1.3, 2 μM. On the procedure: as §11
The next series relates to caspase-3 in K562 cells. In words: Caspase-3 activation (Ac-DEVD-AFC) in cell lysates. The format is cell-based, human. As to conditions: K562, 10 μM, after 24 h. The method, then: Pellets of cells at different times of incubation with 7-nitro-benzofurazan derivative No. 2 (10 μM and 2 μM with K562 and CEM1.3 respectively), were resuspended with lysis buffer (100 mM Hepes, pH 7.6, 0.1% Chaps, 1 mM EDTA, 1 mM Phenyl-methyl-sulphonyl-fluoride and 10 mM DTT) for 20 min on ice and cells were disrupted by 10-s sonication. Lysates, after centrifugation, were utilized to measure the caspase-3 activity. The substrate utilized was the model fluorescent peptide Ac-DEVD-AFC (Acetyl-Asp-GluVal-Asp-7-amino-4-trifluoromethyl coumarin) which was proteolyzed by caspase-3 resulting in a fluorescence emission at 505 nm (excitation at 400 nm). As control, lysates were incubated 30 min at 30° C. with the caspase inhibitor DEVD-CHO before evaluation of enzyme activity. Caspase activity was expressed as fluorescence change observed per minute per number of cells.

A further series has as its target T4, GST P1-1 (Homo sapiens, UniProt P09211).
T4 construct: made in house; host or cells: Escherichia coli
Nature of the series: Inhibition of GST activity (CDNB/GSH spectrophotometric assay). The format is biochemical. To be noted: for IC50: 25° C., pH 6.5, 1 mM glutathione, 1 mM CDNB. The method, then:
as §2, §3, §4

For series [7], the system named is K562, HepG2, CEM1.3 and GLC-4 cancer cell lines. In words: Cytotoxicity, viability and cell penetration on all the tested cancer cell lines. The format is cell-based, human. The method, then:
as §5, §6
The cells were placed in 96-well plates at a density of 15,000 cells per well, in a culture medium volume of 100 μl. After 24 hours, each of the 7-nitro-2,1,3-benzoxadiazole derivatives to be assayed, at the required concentration, was added to the culture medium. At the same time, some control trials were arranged by adding to the wells the solvent in which the compound was dissolved (% v/v of DMSO in PBS). All measurements were carried out in quadruplicate. […]
as §10

SMILES strings stand for the structures. Values joined by “and” are separate entries in the source; they are usually repeats but may differ in a detail not shown here. Identical values can stand only once.

One may read the IC50 as the concentration that gives 50% inhibition.

T4 sequence (P09211 2-210 limits assumed): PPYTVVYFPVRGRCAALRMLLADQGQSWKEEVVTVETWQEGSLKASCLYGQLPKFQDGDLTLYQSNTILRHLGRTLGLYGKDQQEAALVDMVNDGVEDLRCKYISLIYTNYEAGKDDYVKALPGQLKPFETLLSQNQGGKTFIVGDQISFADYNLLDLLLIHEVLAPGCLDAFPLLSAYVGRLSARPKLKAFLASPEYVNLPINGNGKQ
T3 sequence (P09211 2-210 limits assumed, one chain of several): as the sequence (P09211 2-210 limits assumed) above

Turning to `CC[C@]1(O)C[C@@H]2CN(CCc3c([nH]c4ccccc34)[C@@](C(=O)OC)(c3cc4c(cc3OC)N(C)[C@H]3[C@@](O)(C(=O)OC)[C@H](OC(C)=O)[C@]5(CC)C=CCN6CC[C@]43[C@@H]65)C2)C1` [vinblastine], the IC50 in series [1] (CEM VBL100, 7-nitro-2,1,3-benzoxadiazole derivative absent) was determined as 0.34 µM; in [1] (CEM VBL100, with 0.5 μM 6-(7-nitro-2,1,3-benzoxadiazol-4-ylthio)hexanol), 0.05 µM.

Take `O=[N+]([O-])c1ccc(SCCCCCCO)c2nonc12` [(2), 6-(7-nitro-2,1,3-benzoxadiazol-4-ylthio)hexanol]: the IC50 on GST M2-2 came to 0.01 µM; against GST A1-1 it was 25 µM; in [3], 0.1 µM; in series [4] it was 1.4 µM; in series [5], 2.9 µM; in series [6], 0.8 µM. The “amount of GSTP1-1 that co-precipitates with JNK” value in series [2] is reported as “rapidly decreased”. The apoptosis with K562 cells (12 h treatment) was 30%; in the series with K562 cells (after 24 h), 41%; in the series on CEM1.3 cells (12 h treatment), 34%; in the series on CEM1.3 cells (after 24 h) it was 47%. Also, in the series with caspase-3 in K562 cells, the caspase-3 activity result is recorded as “strong increase of caspase-3”.

For the molecule `O=[N+]([O-])c1ccc(Sc2ncc[nH]2)c2nonc12` [(3), 2-(7-nitro-2,1,3-benzoxadiazol-4-ylthio)imidazole], the IC50 on GST M2-2 was 0.01 µM; against GST A1-1, 11 µM; against GST P1-1, 6.3 µM; in series [3] it was 3.9 µM; in series [4], 10 µM; in series [5], 16 µM. Further, the IC50 in [6] is 8.8 µM.

With `O=[N+]([O-])c1ccc(Sc2ccc(O)cc2)c2nonc12` [(4), 4-(7-nitro-2,1,3-benzoxadiazol-4-ylthio)phenol], the IC50 against GST M2-2 stood at 0.03 µM; on GST A1-1, 6.5 µM; against GST P1-1, 0.7 µM; in series [3], 2.4 µM; in [4] it was 7.5 µM; in series [5], 16.3 µM. Besides, the half-maximal inhibitory concentration (IC50) in [6] came out at 6.4 µM.

For the molecule `O=[N+]([O-])c1ccc(NCCCCCCO)c2nonc12` [(6), 6-(7-nitro-2,1,3-benzoxadiazol-4-ylamino)hexanol], the IC50 at GST M2-2 was ~2 µM and 1.8 µM; on GST A1-1, over 100 µM; in [3] it was over 50 µM; in series [4], over 50 µM; in series [5] it was over 50 µM; in [6], over 50 µM. Besides, at GST P1-1, the “inhibition activity with regard to the enzymatic isoform GSTP1-1 (in words)” value is recorded as “no inhibition activity”. In addition, the “viability of all the tested cancer cell lines” value in [7] (48 hours of incubation with 50 μM) is “still viable”. Moreover, in series [7] (after 6 hours of incubation, various concentrations), the “penetration into the cells (intracellular fluorescence)” value is “easily penetrate the cells”.

With `O=C(O)CCSc1ccc([N+](=O)[O-])c2nonc12` [(5), 3-(7-nitro-2,1,3-benzoxadiazol-4-ylthio)propionic acid], the IC50 against GST M2-2 worked out at 0.31 µM; against GST A1-1, 66 µM; at GST P1-1 it was 5.74 µM; in [3], 6.5 µM; in series [4], 16.5 µM; in [5], 25 µM. Further, the half-maximal inhibitory concentration (IC50) in series [6] stood at 38 µM.

With `O=[N+]([O-])c1ccc(SCCCCO)c2nonc12` [(1), 4-(7-nitro-2,1,3-benzoxadiazol-4-ylthio)butanol], the IC50 on GST M2-2 was found to be 0.03 µM; against GST A1-1, 56 µM; against GST P1-1, 2 µM; in series [3], 0.2 µM; in series [4], 3.2 µM; in [5] it was 3.2 µM. The IC50 in series [6] stood at 2.2 µM.

Source of the values: patent US8796317B2, “Use of 7-nitro-2,1,3-benzoxadiazole derivatives for anticancer therapy” (Universita Degli Studi di Roma “Tor Vergata”, priority 2003, dated 2014).
